Laboratory results as given in the supplement of paper PMC8253809.

How the values were obtained:
HGGX39 [1] = paediatric high-grade glioma line; assay: EC50 (inflection of fitted growth-inhibition curve) (log10 M)
In short: (§1)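 Patient-derived pHGG/DIPG cell lines and astrocyte controls were plated in 384-well plates coated with 1% Geltrex and dosed by pin tool with a 10-point threefold dilution series (mean top concentration 35 μM), in triplicate. Cells were exposed for 7 days (3 days for iAstro) at 37 °C and 5% CO2. CellTiter-Glo luminescence was log2-transformed, normalised per plate to % activity between negative (solvent) and positive control wells, and pooled. EC50 and maximal response (yFin) were taken from whichever three- or four-parameter log-logistic fit had the lowest AICc.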

DIPGX7 [2] = H3.3 K27M diffuse intrinsic pontine glioma line; assay: as above
In short: as §1

HGGX6 [3] = H3.3 G34R paediatric high-grade glioma line; assay: as above
In short: as §1

DIPGX37 [4] = H3.3 K27M diffuse intrinsic pontine glioma line; assay: as above
In short: as §1

SUDIPGIV [5] = diffuse intrinsic pontine glioma line; assay: as above
In short: as §1

HGGX42 [6] = H3.3 G34R paediatric high-grade glioma line; assay: as above
In short: as §1

DIPGX29 [7] = H3.3 K27M diffuse intrinsic pontine glioma line; assay: as above
In short: as §1

SUDIPGXXI [8] = diffuse intrinsic pontine glioma line; assay: as above
In short: as §1

HGGX39 [9] = assay: maximal growth inhibition (yFin) relative to DMSO / staurosporine; higher = more efficacious
In short: as §1

DIPGX7 [10] = assay: as above
In short: as §1

HGGX6 [11] = assay: as above
In short: as §1

DIPGX37 [12] = assay: as above
In short: as §1

SUDIPGIV [13] = assay: as above
In short: as §1

HGGX42 [14] = assay: as above
In short: as §1

DIPGX29 [15] = assay: as above
In short: as §1

SUDIPGXXI [16] = assay: as above
In short: as §1

HGGX39 [17] = assay: area under dose-response curve of % growth inhibition (log2 RLU vs DMSO / staurosporine), 1e-11 to 1e-4 M (% x log10 M); higher = more growth inhibition
In short: (§2)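 Patient-derived pHGG/DIPG cell lines and astrocyte controls were grown on 1% Geltrex-coated 384-well plates and exposed to a 10-point threefold dilution series (mean top concentration 35 μM), in triplicate. Exposure was 7 days (iAstro 3 days) at 37 °C, 5% CO2. CellTiter-Glo luminescence was log2-transformed and normalised per plate to % activity between solvent and positive controls. Area under the curve was taken by trapezoid rule from the fitted log-logistic curve, or from a smoothing spline when the sigmoid fit failed.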

HABS [18] = astrocyte control; assay: as above
In short: as §2

SUDIPGXIX [19] = diffuse intrinsic pontine glioma line; assay: as above
In short: as §2

DIPGX7 [20] = assay: as above
In short: as §2

HGGX6 [21] = assay: as above
In short: as §2

SUDIPGXVII [22] = diffuse intrinsic pontine glioma line; assay: as above
In short: as §2

iAstro [23] = astrocyte control; assay: as above
In short: as §2

DIPGX9 [24] = diffuse intrinsic pontine glioma line; assay: as above
In short: as §2

DIPGX37 [25] = assay: as above
In short: as §2

SUDIPGIV [26] = assay: as above
In short: as §2

HGGX2 [27] = paediatric high-grade glioma line; assay: as above
In short: as §2

SUDIPGVI = diffuse intrinsic pontine glioma line; assay: as above
In short: as §2

HGGX42 [28] = assay: as above
In short: as §2

DIPGX29 [29] = assay: as above
In short: as §2

SUDIPGXXI [30] = assay: as above
In short: as §2

SUDIPGXIII = diffuse intrinsic pontine glioma line; assay: as above
In short: as §2

SUDIPGXIX [31] = assay: EC50 (inflection of fitted growth-inhibition curve) (log10 M)
In short: as §1

iAstro [32] = assay: as above
In short: as §1

DIPGX9 [33] = assay: as above
In short: as §1

HGGX2 [34] = assay: as above
In short: as §1

SUDIPGXIX [35] = assay: maximal growth inhibition (yFin) relative to DMSO / staurosporine; higher = more efficacious
In short: as §1

iAstro [36] = assay: as above
In short: as §1

DIPGX9 [37] = assay: as above
In short: as §1

HGGX2 [38] = assay: as above
In short: as §1

HABS [39] = assay: EC50 (inflection of fitted growth-inhibition curve) (log10 M)
In short: as §1

SUDIPGXVII [40] = assay: as above
In short: as §1

HABS [41] = assay: maximal growth inhibition (yFin) relative to DMSO / staurosporine; higher = more efficacious
In short: as §1

SUDIPGXVII [42] = assay: as above
In short: as §1

## CC(C(O)c1ccc(O)cc1)N1CCC(Cc2ccccc2)CC1 (stereo unspecified) [IFENPRODIL]
HGGX39 [1]
  EC50 (log10 M): -4.86
DIPGX7 [2]
  EC50 (log10 M): -4.83
HGGX6 [3]
  EC50 (log10 M): -4.95
DIPGX37 [4]
  EC50 (log10 M): -4.82
SUDIPGIV [5]
  EC50 (log10 M): -4.66
HGGX42 [6]
  EC50 (log10 M): -5.06
DIPGX29 [7]
  EC50 (log10 M): -4.85
SUDIPGXXI [8]
  EC50 (log10 M): -4.85
HGGX39 [9]
  maximal growth inhibition: 36.6%
DIPGX7 [10]
  maximal growth inhibition: 45.7%
HGGX6 [11]
  maximal growth inhibition: 20.6%
DIPGX37 [12]
  maximal growth inhibition: 59.3%
SUDIPGIV [13]
  maximal growth inhibition: 45.1%
HGGX42 [14]
  maximal growth inhibition: 61.8%
DIPGX29 [15]
  maximal growth inhibition: 29.5%
SUDIPGXXI [16]
  maximal growth inhibition: 75.3%
HGGX39 [17]
  area under dose-response curve: 44.1
HABS [18]
  area under dose-response curve: 0.152
SUDIPGXIX [19]
  area under dose-response curve: 3.16
DIPGX7 [20]
  area under dose-response curve: 57.3
HGGX6 [21]
  area under dose-response curve: 25.9
SUDIPGXVII [22]
  area under dose-response curve: 17.3
iAstro [23]
  area under dose-response curve: 13.3
DIPGX9 [24]
  area under dose-response curve: 18.8
DIPGX37 [25]
  area under dose-response curve: 48.4
SUDIPGIV [26]
  area under dose-response curve: 29.8
HGGX2 [27]
  area under dose-response curve: 8.88
SUDIPGVI
  area under dose-response curve: 18.5
HGGX42 [28]
  area under dose-response curve: 66.8
DIPGX29 [29]
  area under dose-response curve: 39.3
SUDIPGXXI [30]
  area under dose-response curve: 85.1
SUDIPGXIII
  area under dose-response curve: 27.3

## CC(C)N(CCCNC(=O)Nc1ccc(C(C)(C)C)cc1)C[C@H]1O[C@@H](n2cc(Br)c3c(N)ncnc32)[C@H](O)[C@@H]1O [SGC0946]
SUDIPGXIX [31]
  EC50 (log10 M): -4.54
DIPGX7 [2]
  EC50 (log10 M): -4.86
HGGX6 [3]
  EC50 (log10 M): -4.77
iAstro [32]
  EC50 (log10 M): -4.87
DIPGX9 [33]
  EC50 (log10 M): -4.79
DIPGX37 [4]
  EC50 (log10 M): -4.52
HGGX2 [34]
  EC50 (log10 M): -4.58
HGGX42 [6]
  EC50 (log10 M): -4.53
DIPGX29 [7]
  EC50 (log10 M): -4.49
SUDIPGXXI [8]
  EC50 (log10 M): -4.77
SUDIPGXIX [35]
  maximal growth inhibition: 107%
DIPGX7 [10]
  maximal growth inhibition: 35.5%
HGGX6 [11]
  maximal growth inhibition: 43%
iAstro [36]
  maximal growth inhibition: 25.3%
DIPGX9 [37]
  maximal growth inhibition: 30.4%
DIPGX37 [12]
  maximal growth inhibition: 65.1%
HGGX2 [38]
  maximal growth inhibition: 100%
HGGX42 [14]
  maximal growth inhibition: 102%
DIPGX29 [15]
  maximal growth inhibition: 100%
SUDIPGXXI [16]
  maximal growth inhibition: 107%
HGGX39 [17]
  area under dose-response curve: 14.8
HABS [18]
  area under dose-response curve: 8.16
SUDIPGXIX [19]
  area under dose-response curve: 57.8
DIPGX7 [20]
  area under dose-response curve: 54
HGGX6 [21]
  area under dose-response curve: 33.2
SUDIPGXVII [22]
  area under dose-response curve: 27.7
iAstro [23]
  area under dose-response curve: 21.5
DIPGX9 [24]
  area under dose-response curve: 24.1
DIPGX37 [25]
  area under dose-response curve: 56.4
SUDIPGIV [26]
  area under dose-response curve: 11.6
HGGX2 [27]
  area under dose-response curve: 58.5
SUDIPGVI
  area under dose-response curve: 20
HGGX42 [28]
  area under dose-response curve: 66.7
DIPGX29 [29]
  area under dose-response curve: 58.4
SUDIPGXXI [30]
  area under dose-response curve: 82.6
SUDIPGXIII
  area under dose-response curve: 40.5

## CO[C@H]1C[C@@H]2CC[C@@H](C)[C@@](O)(O2)C(=O)C(=O)N2CCCC[C@H]2C(=O)O[C@H]([C@H](C)C[C@@H]2CC[C@@H](OC(=O)C(C)(CO)CO)[C@H](OC)C2)CC(=O)[C@H](C)/C=C(\C)[C@@H](O)[C@@H](OC)C(=O)[C@H](C)C[C@H](C)/C=C/C=C/C=C/1C [TEMSIROLIMUS]
HABS [39]
  EC50 (log10 M): -4.85
SUDIPGXIX [31]
  EC50 (log10 M): -4.89
DIPGX7 [2]
  EC50 (log10 M): -4.94
HGGX6 [3]
  EC50 (log10 M): -4.79
SUDIPGXVII [40]
  EC50 (log10 M): -4.96
iAstro [32]
  EC50 (log10 M): -4.98
DIPGX37 [4]
  EC50 (log10 M): -4.85
HGGX2 [34]
  EC50 (log10 M): -4.9
DIPGX29 [7]
  EC50 (log10 M): -4.69
SUDIPGXXI [8]
  EC50 (log10 M): -5.31
HABS [41]
  maximal growth inhibition: 104%
SUDIPGXIX [35]
  maximal growth inhibition: 96.2%
DIPGX7 [10]
  maximal growth inhibition: 63.7%
HGGX6 [11]
  maximal growth inhibition: 58%
SUDIPGXVII [42]
  maximal growth inhibition: 24.2%
iAstro [36]
  maximal growth inhibition: 94.3%
DIPGX37 [12]
  maximal growth inhibition: 89.6%
HGGX2 [38]
  maximal growth inhibition: 77.4%
DIPGX29 [15]
  maximal growth inhibition: 116%
SUDIPGXXI [16]
  maximal growth inhibition: 124%
HGGX39 [17]
  area under dose-response curve: 91.8
HABS [18]
  area under dose-response curve: 88.3
SUDIPGXIX [19]
  area under dose-response curve: 116
DIPGX7 [20]
  area under dose-response curve: 71
HGGX6 [21]
  area under dose-response curve: 77.9
SUDIPGXVII [22]
  area under dose-response curve: 40.1
iAstro [23]
  area under dose-response curve: 101
DIPGX9 [24]
  area under dose-response curve: 198
DIPGX37 [25]
  area under dose-response curve: 123
SUDIPGIV [26]
  area under dose-response curve: 83.2
HGGX2 [27]
  area under dose-response curve: 86.5
SUDIPGVI
  area under dose-response curve: 89
HGGX42 [28]
  area under dose-response curve: 121
DIPGX29 [29]
  area under dose-response curve: 113
SUDIPGXXI [30]
  area under dose-response curve: 201
SUDIPGXIII
  area under dose-response curve: 53.9

## NC(=O)Nc1sc(-c2ccc(F)cc2)cc1C(N)=O [TPCA-1]
HGGX39 [1]
  EC50 (log10 M): -4.79
HABS [39]
  EC50 (log10 M): -4.95
SUDIPGXIX [31]
  EC50 (log10 M): -4.66
HGGX6 [3]
  EC50 (log10 M): -5.19
SUDIPGXVII [40]
  EC50 (log10 M): -4.74
iAstro [32]
  EC50 (log10 M): -4.76
DIPGX9 [33]
  EC50 (log10 M): -4.8
DIPGX37 [4]
  EC50 (log10 M): -4.8
SUDIPGIV [5]
  EC50 (log10 M): -4.55
HGGX2 [34]
  EC50 (log10 M): -4.67
HGGX42 [6]
  EC50 (log10 M): -5.23
DIPGX29 [7]
  EC50 (log10 M): -4.75
SUDIPGXXI [8]
  EC50 (log10 M): -4.81
HGGX39 [9]
  maximal growth inhibition: 27.7%
HABS [41]
  maximal growth inhibition: 33.8%
SUDIPGXIX [35]
  maximal growth inhibition: 58.5%
HGGX6 [11]
  maximal growth inhibition: 22.5%
SUDIPGXVII [42]
  maximal growth inhibition: 20.7%
iAstro [36]
  maximal growth inhibition: 24.4%
DIPGX9 [37]
  maximal growth inhibition: 36.9%
DIPGX37 [12]
  maximal growth inhibition: 38.5%
SUDIPGIV [13]
  maximal growth inhibition: 21.9%
HGGX2 [38]
  maximal growth inhibition: 36.3%
HGGX42 [14]
  maximal growth inhibition: 24.8%
DIPGX29 [15]
  maximal growth inhibition: 35.9%
SUDIPGXXI [16]
  maximal growth inhibition: 122%
HGGX39 [17]
  area under dose-response curve: 21.9
HABS [18]
  area under dose-response curve: 32.4
SUDIPGXIX [19]
  area under dose-response curve: 39.2
DIPGX7 [20]
  area under dose-response curve: 11.3
HGGX6 [21]
  area under dose-response curve: 26.9
SUDIPGXVII [22]
  area under dose-response curve: 15.2
iAstro [23]
  area under dose-response curve: 18.2
DIPGX9 [24]
  area under dose-response curve: 29.4
DIPGX37 [25]
  area under dose-response curve: 30.6
SUDIPGIV [26]
  area under dose-response curve: 12
HGGX2 [27]
  area under dose-response curve: 23.3
SUDIPGVI
  area under dose-response curve: 6.26
HGGX42 [28]
  area under dose-response curve: 30.8
DIPGX29 [29]
  area under dose-response curve: 26.8
SUDIPGXXI [30]
  area under dose-response curve: 99.3
SUDIPGXIII
  area under dose-response curve: 3.37
